These results are taken from patent publication US10221174B2, “N-(phenylsulfonyl)benzamides and related compounds as BCL-2 inhibitors” (THE REGENTS OF THE UNIVERSITY OF MICHIGAN, priority 2016, dated 2019).

In data set [1] the test system is RS4;11 cells. Briefly: RS4;11 cell viability, CCK-8 assay. The data set is classed as cell-based. The following applies: Homo sapiens, RS4-11, 96 h, CCK-8, 4 days, read-out: RS4, 11 IC50 (Bcl-2 dependent). On the procedure: RS4;11 cells were obtained from American Type Culture Collection (ATCC). They were used within three months of thawing fresh vials. Cells were maintained in the recommended culture medium with 10% FBS at 37° C. and an atmosphere of 5% CO2.
The effect of representative Compounds of the Disclosure on cell viability was determined using Cell Counting Kit-8 (CCK-8) assay (Dojindo, Rockville, Md.) according to the manufacturer's instructions. 200 μL of a RS4;11 cell suspension (10000 cells/well) in culture medium were seeded into 96-well plates and cultured overnight. Each tested compound was serially diluted in culture medium, and 20 μL of the compound dilution was added to the corresponding well of the cell plate. After the addition of the tested compound, the cells were incubated at 37° C. in an atmosphere of 5% CO2 for 4 days. At the end of 4 days, 10 μL of CCK-8 solution was added to each well of the plate and incubated for 1-4 hours. The plates were read at 450 nm on the microplate spectrophotometer (Epoch2, BioTek). The readings were normalized to the vehicle cells, and the IC50 was calculated by nonlinear regression analysis using GraphPad Prism 5 software.
In general terms: Formazan colour is commonly taken as a measure of viable cells.

The subject of data set [2] is MV4;11 cell line. Briefly: MV4;11 inhibition. The data set is classed as cell-based.
A short description of data set [3]: Pharmacokinetics in rats. The data set is classed as in vivo. On the procedure: The pharmacokinetics of ABT-199 and representative Compounds of the Disclosure were evaluated in rats at an IV dose of 2 mg/kg and an oral dose of 20 mg/kg.

Molecules are shown by their SMILES. Like-named read-outs stand apart in the source and are kept apart here.

For orientation: IC50 means the concentration that inhibits the measured activity by half. `O=C(NS(=O)(=O)c1ccc(NC[C@H]2COCCO2)c([N+](=O)[O-])c1)c1ccc(N2CCN(CC3=C(c4ccc(Cl)cc4)CC4(CCC4)CC3)CC2)nc1Oc1cnc2[nH]ccc2c1` [compound 28, (S)-N-((4-(((1,4-dioxan-2-yl)methyl)amino)-3-nitrophenyl)sulfonyl)-2-((1H-pyrrolo[2,3-b]pyridin-5-yl)oxy)-6-(4-((6-(4-chlorophenyl)spiro[3.5]non-6-en-7-yl)methyl)piperazin-1-yl)nicotinamide]: the 50% inhibitory concentration (IC50) in data set [1] turned out to be 968 nM; in data set [2] (Homo sapiens, MV4-11), 1300 nM.

As for `O=C(NS(=O)(=O)c1ccc(NCC2CCOCC2)c([N+](=O)[O-])c1)c1c(F)cc(N2CCN(CC3=C(c4ccc(Cl)cc4)CC4(CCC4)CC3)CC2)cc1Oc1cnc2[nH]ccc2c1` [compound 41, 2-((1H-pyrrolo[2,3-b]pyridin-5-yl)oxy)-4-(4-((6-(4-chlorophenyl)spiro[3.5]non-6-en-7-yl)methyl)piperazin-1-yl)-6-fluoro-N-((3-nitro-4-(((tetrahydro-2H-pyran-4-yl)methyl)amino)phenyl)sulfonyl)benzamide], the IC50 in data set [1] was found to be 52 nM; in data set [2] (Homo sapiens, MV4-11) it was 18.1 nM.

For the compound `O=C(NS(=O)(=O)C1=CC2C(=O)N(CC3CCOCC3)CC2C([N+](=O)[O-])=C1)c1ccc(N2CCN(CC3=C(c4ccc(Cl)cc4)CC4(CCC4)CC3)CC2)cc1Oc1cnc2[nH]ccc2c1` (stereo not shown) [compound 38, 2-((1H-pyrrolo[2,3-b]pyridin-5-yl)oxy)-4-(4-((6-(4-chlorophenyl)spiro[3.5]non-6-en-7-yl)methyl)piperazin-1-yl)-N-((7-nitro-3-oxo-2-((tetrahydro-2H-pyran-4-yl)methyl)-2,3,3a,7a-tetrahydro-1H-isoindol-5-yl)sulfonyl)benzamide], the IC50 in data set [1] is 66 nM; in data set [2] (Homo sapiens, MV4-11), 103 nM.

For `O=C(NS(=O)(=O)c1ccc(NC[C@H]2COCCO2)c([N+](=O)[O-])c1)c1ccc(N2CCN(CC3=C(c4ccc(Cl)cc4)CC4(CCC4)CC3)CC2)c(F)c1Oc1cnc2[nH]ccc2c1` [compound 36, (S)-N-((4-(((1,4-dioxan-2-yl)methyl)amino)-3-nitrophenyl)sulfonyl)-2-((1H-pyrrolo[2,3-b]pyridin-5-yl)oxy)-4-(4-((6-(4-chlorophenyl)spiro[3.5]non-6-en-7-yl)methyl)piperazin-1-yl)-3-fluorobenzamide], the IC50 in data set [1] was 13 nM; in data set [2] (Homo sapiens, MV4-11), 44.4 nM.

A word on the MRT inf: it is a mean duration of stay, worked out from the concentration-time curve. The term Cmax denotes the maximum level reached in the sampled fluid or tissue. What is called Tmax is the time at which the peak concentration occurs. For the compound `CC1(C)CCC(CN2CCN(c3ccc(C(=O)NS(=O)(=O)c4ccc(NCC5CCOCC5)c([N+](=O)[O-])c4)c(Oc4cnc5[nH]ccc5c4)c3)CC2)=C(c2ccc(Cl)cc2)C1` [ABT-199, Venetoclax, reference compound], in data set [3] (IV 2 mg/kg), the “AUC0-∞ IV” value is 5446 n · gh/mL. In addition, in data set [3] (oral 20 mg/kg), the “AUC0-∞ PO” value amounted to 20812 n · gh/mL. The “F(AUC0-t)” value in data set [3] (oral 20 mg/kg vs IV 2 mg/kg) is given as 38.2%. Also, the MRT inf in data set [3] (rat, in vivo, IV 2 mg/kg) turned out to be 1.23 h. The AUC(0-t) was found to be 5440 ng·h/mL in data set [3] (rat, in vivo, IV 2 mg/kg, read-out: AUC0-t IV) and 20800 ng·h/mL in data set [3] (rat, in vivo, oral 20 mg/kg, read-out: AUC0-t PO). For the same compound, in data set [3] (rat, in vivo, IV 2 mg/kg, read-out: CL (iv) (converted)), the clearance was 6.57 mL/min/kg. Moreover, the Cmax is 8740 ng/mL in data set [3] (rat, in vivo, IV 2 mg/kg, read-out: Cmax IV) and 6000 ng/mL in data set [3] (rat, in vivo, oral 20 mg/kg, read-out: Cmax PO). The Tmax in data set [3] (rat, in vivo, IV 2 mg/kg, read-out: Tmax IV) came out at 0.083 h; in data set [3] (rat, in vivo, oral 20 mg/kg, read-out: Tmax PO), 1.67 h. Besides, the Vd in data set [3] (rat, in vivo, IV 2 mg/kg, read-out: Vss (iv)) was determined as 0.496 L/kg. In addition, the half-life was 4.32 h in data set [3] (rat, in vivo, IV 2 mg/kg, read-out: t1/2 IV (converted)) and 3.22 h in data set [3] (rat, in vivo, oral 20 mg/kg, read-out: t1/2 PO (converted)).

As to `COCCOCCn1nc2cc(S(=O)(=O)NC(=O)c3ccc(N4CCN(CC5=C(c6ccc(Cl)cc6)CC6(CCC6)CC5)CC4)cc3Oc3cnc4[nH]ccc4c3)cc([N+](=O)[O-])c2c1F` [compound 22, 2-((1H-pyrrolo[2,3-b]pyridin-5-yl)oxy)-4-(4-((6-(4-chlorophenyl)spiro[3.5]non-6-en-7-yl)methyl)piperazin-1-yl)-N-((3-fluoro-2-(2-(2-methoxyethoxy)ethyl)-4-nitro-2H-indazol-6-yl)sulfonyl)benzamide], the IC50 came out at 20 nM in data set [1] and 58.9 nM in data set [2] (Homo sapiens, MV4-11).

In the case of `COCCn1cc(S(=O)(=O)NC(=O)c2ccc(N3CCN(CC4=C(c5ccc(Cl)cc5)CC5(CCC5)CC4)CC3)cc2Oc2cnc3[nH]ccc3c2)cc1[N+](=O)[O-]` [compound 35, 2-((1H-pyrrolo[2,3-b]pyridin-5-yl)oxy)-4-(4-((6-(4-chlorophenyl)spiro[3.5]non-6-en-7-yl)methyl)piperazin-1-yl)-N-((1-(2-methoxyethyl)-5-nitro-1H-pyrrol-3-yl)sulfonyl)benzamide], the 50% inhibitory concentration (IC50) in data set [1] turned out to be 611 nM; in data set [2] (Homo sapiens, MV4-11), 3600 nM.

In the case of `O=C(NS(=O)(=O)c1ccc(NC[C@@H]2COCCO2)c([N+](=O)[O-])c1)c1ccc(N2CCN(CC3=C(c4ccc(Cl)cc4)CC4(CC3)COC4)CC2)cc1Oc1cnc2[nH]ccc2c1` [compound 8, (R)-N-((4-(((1,4-dioxan-2-yl)methyl)amino)-3-nitrophenyl)sulfonyl)-2-((1H-pyrrolo[2,3-b]pyridin-5-yl)oxy)-4-(4-((6-(4-chlorophenyl)-2-oxaspiro[3.5]non-6-en-7-yl)methyl)piperazin-1-yl)benzamide], the IC50 in data set [1] is 3.7 nM.

Regarding `O=C(NS(=O)(=O)c1ccc(NC[C@@H]2COCCO2)c([N+](=O)[O-])c1)c1ccc(N2CCN(CC3=C(c4ccc(Cl)cc4)CC4(CCC4)CC3)CC2)cc1Oc1cnc2[nH]ccc2c1` [compound 13, (R)-N-((4-(((1,4-dioxan-2-yl)methyl)amino)-3-nitrophenyl)sulfonyl)-2-((1H-pyrrolo[2,3-b]pyridin-5-yl)oxy)-4-(4-((6-(4-chlorophenyl)spiro[3.5]non-6-en-7-yl)methyl)piperazin-1-yl)benzamide], in data set [1], the half-maximal inhibitory concentration (IC50) is 2.8 nM.

As for `O=C(NS(=O)(=O)c1ccc(NC[C@@H]2COCCO2)c([N+](=O)[O-])c1)c1ccc(C2=CCN(CC3=C(c4ccc(Cl)cc4)CC4(CC3)COC4)CC2)cc1Oc1cnc2[nH]ccc2c1` [Cpd. No. 5, (R)-N-((4-(((1,4-dioxan-2-yl)methyl)amino)-3-nitrophenyl)sulfonyl)-2-((1H-pyrrolo[2,3-b]pyridin-5-yl)oxy)-4-(1-((6-(4-chlorophenyl)-2-oxaspiro[3.5]non-6-en-7-yl)methyl)-1,2,3,6-tetrahydropyridin-4-yl)benzamide], in data set [1], the IC50 is 22 nM.

Take `O=C(NS(=O)(=O)c1ccc(NCC2CCOCC2)c([N+](=O)[O-])c1)c1ccc(N2CCN(CC3=C(c4ccc(Cl)cc4)CC4(CCC4)CC3)CC2)nc1Oc1cnc2[nH]ccc2c1` [compound 32, 2-((1H-pyrrolo[2,3-b]pyridin-5-yl)oxy)-6-(4-((6-(4-chlorophenyl)spiro[3.5]non-6-en-7-yl)methyl)piperazin-1-yl)-N-((3-nitro-4-(((tetrahydro-2H-pyran-4-yl)methyl)amino)phenyl)sulfonyl)nicotinamide]: the concentration for half-maximal inhibition (IC50) in data set [1] turned out to be 1380 nM.

`O=C(NS(=O)(=O)c1cc([N+](=O)[O-])n(CCC2CCOCC2)c1)c1ccc(N2CCN(CC3=C(c4ccc(Cl)cc4)CC4(CCC4)CC3)CC2)cc1Oc1cnc2[nH]ccc2c1` [compound 24, 2-((1H-pyrrolo[2,3-b]pyridin-5-yl)oxy)-4-(4-((6-(4-chlorophenyl)spiro[3.5]non-6-en-7-yl)methyl)piperazin-1-yl)-N-((5-nitro-1-(2-(tetrahydro-2H-pyran-4-yl)ethyl)-1H-pyrrol-3-yl)sulfonyl)benzamide] showed an IC50 in data set [2] (Homo sapiens, MV4-11) of 243000 nM.

As to `O=C(NS(=O)(=O)c1ccc(NC[C@H]2COCCO2)c([N+](=O)[O-])c1)c1cc(F)c(N2CCN(CC3=C(c4ccc(Cl)cc4)CC4(CCC4)CC3)CC2)cc1Oc1cnc2[nH]ccc2c1` [compound 26, (S)-N-((4-(((1,4-dioxan-2-yl)methyl)amino)-3-nitrophenyl)sulfonyl)-2-((1H-pyrrolo[2,3-b]pyridin-5-yl)oxy)-4-(4-((6-(4-chlorophenyl)spiro[3.5]non-6-en-7-yl)methyl)piperazin-1-yl)-5-fluorobenzamide], in data set [2], the concentration for half-maximal inhibition (IC50) amounted to 6710 nM.

For `O=C(NS(=O)(=O)c1ccc(NCC2CCOCC2)c([N+](=O)[O-])c1)c1ccc(C2=CCN(CC3=C(c4ccc(Cl)cc4)CC4(CC3)COC4)CC2)cc1Oc1cnc2[nH]ccc2c1` [compound 9, 2-((1H-pyrrolo[2,3-b]pyridin-5-yl)oxy)-4-(1-((6-(4-chlorophenyl)-2-oxaspiro[3.5]non-6-en-7-yl)methyl)-1,2,3,6-tetrahydropyridin-4-yl)-N-((3-nitro-4-(((tetrahydro-2H-pyran-4-yl)methyl)amino)phenyl)sulfonyl)benzamide], the half-maximal inhibitory concentration (IC50) in data set [1] was 28 nM.

Consider `O=C(NS(=O)(=O)c1cc([N+](=O)[O-])c(NC[C@H]2COCCO2)cc1F)c1ccc(N2CCN(CC3=C(c4ccc(Cl)cc4)CC4(CCC4)CC3)CC2)cc1Oc1cnc2[nH]ccc2c1` [Cpd. No. 44, (S)-N-((4-(((1,4-dioxan-2-yl)methyl)amino)-2-fluoro-5-nitrophenyl)sulfonyl)-2-((1H-pyrrolo[2,3-b]pyridin-5-yl)oxy)-4-(4-((6-(4-chlorophenyl)spiro[3.5]non-6-en-7-yl)methyl)piperazin-1-yl)benzamide], for which the IC50 in data set [1] came out at 7160 nM.
